Assay results published in ChEMBL document CHEMBL1201862, “PubChem BioAssay data set” (2004).
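In this assay, cells in 96-well plates receive the compound at five concentrations for 48 hours. Endpoints are linearly interpolated between the surrounding concentrations. GI50 is the concentration that inhibits growth by half.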 Activity calls are given as the source filed them. Cut-off read from the data, not from the text of the source: active = GI50 up to about 1.1 µM and inactive = higher.

Columns and labels:
Test in all cases: DTP human tumour cell line panel, 48 h
[1] = test system: 786-0
[2] = test system: A549
[3] = test system: CAKI-1
[4] = test system: CCRF-CEM
[5] = test system: DMS-273
[6] = test system: IGROV-1
[7] = test system: K562
[8] = test system: NCI-H226
[9] = test system: NCI-H460
[10] = test system: OVCAR-3
[11] = test system: OVCAR-5
[12] = test system: RXF 393
[13] = test system: SF-268
[14] = test system: SN12C
[15] = test system: U-251
[16] = test system: BT-549
[17] = test system: DU-145
[18] = test system: Hs-578T
[19] = test system: T47D
[20] = test system: TK-10

With `CCCN(CCCN)/[N+]([O-])=N\O` the GI50 [1] was > 100 µM (inactive), the GI50 [2] was > 100 µM (inactive) and the GI50 [3] was > 100 µM (inactive). The GI50 [4] was > 100 µM (inactive), the GI50 [5] was > 100 µM (inactive) and the GI50 [6] was > 100 µM (inactive). For the same compound, the GI50 [7] was > 100 µM (inactive), the GI50 [8] was > 100 µM (inactive) and the GI50 [9] was > 100 µM (inactive). The GI50 [10] was > 100 µM (inactive), the GI50 [11] was > 100 µM (inactive) and the GI50 [12] was > 100 µM (inactive). The GI50 [13] was > 100 µM (inactive), the GI50 [14] was > 100 µM (inactive) and the GI50 [15] was > 100 µM (inactive).
With `O=C1c2ccccc2C(=O)c2sc(Nc3ccc([N+](=O)[O-])cc3)nc21` the GI50 [1] was 5.27 µM (inactive), the GI50 [2] was 17.5 µM (inactive) and the GI50 [16] was 14.3 µM (inactive). The GI50 [3] was 4.25 µM (inactive), the GI50 [4] was 1.97 µM (inactive) and the GI50 [5] was 7.69 µM (inactive). The GI50 [17] was 19.2 µM (inactive), the GI50 [18] was 1.32 µM (inactive) and the GI50 [6] was 12.5 µM (inactive). For the same compound, the GI50 [7] was 2.17 µM (inactive), the GI50 [8] was 17.2 µM (inactive) and the GI50 [9] was 10 µM (inactive). For the same compound, the GI50 [10] was 2.24 µM (inactive), the GI50 [11] was 13.7 µM (inactive) and the GI50 [12] was 5.16 µM (inactive). The GI50 [13] was 6.93 µM (inactive), the GI50 [14] was 3.19 µM (inactive) and the GI50 [19] was 2.18 µM (inactive). For the same compound, the GI50 [20] was 12.2 µM (inactive) and the GI50 [15] was 3.85 µM (inactive).
`COC(=O)Cc1cc(=O)oc2c1C(=O)CCC2` was tested, and the GI50 [1] was > 100 µM (inactive), the GI50 [2] was > 100 µM (inactive) and the GI50 [3] was > 100 µM (inactive). For the same compound, the GI50 [4] was > 100 µM (inactive), the GI50 [5] was > 100 µM (inactive) and the GI50 [6] was > 100 µM (inactive). The GI50 [7] was > 100 µM (inactive), the GI50 [8] was > 100 µM (inactive) and the GI50 [9] was > 100 µM (inactive). The GI50 [10] was > 100 µM (inactive), the GI50 [11] was > 100 µM (inactive) and the GI50 [12] was > 100 µM (inactive). For the same compound, the GI50 [13] was > 100 µM (inactive), the GI50 [14] was > 100 µM (inactive) and the GI50 [20] was > 100 µM (inactive). The GI50 [15] was > 100 µM (inactive).
`CCc1c(Cc2[nH]c(Cc3[nH]c(C=O)c(C)c3CC)c(CC)c2CC)[nH]c(C=O)c1C` was tested, and the GI50 [1] was > 100 µM (inactive), the GI50 [2] was > 100 µM (inactive) and the GI50 [3] was > 100 µM (inactive). For the same compound, the GI50 [4] was 66.7 µM (inactive), the GI50 [5] was > 100 µM (inactive) and the GI50 [7] was > 100 µM (inactive). For the same compound, the GI50 [8] was > 100 µM (inactive), the GI50 [9] was > 100 µM (inactive) and the GI50 [10] was > 100 µM (inactive). For the same compound, the GI50 [12] was 39 µM (inactive), the GI50 [13] was > 100 µM (inactive) and the GI50 [14] was > 100 µM (inactive). The GI50 [20] was > 100 µM (inactive) and the GI50 [15] was > 100 µM (inactive).
With `COc1cc(O)c2c(c1)C(=O)C1=C(C2=O)C(O)C[C@@](C)(O)C1` (some centres undefined) the GI50 [1] was 3.08 µM (inactive), the GI50 [2] was 2.34 µM (inactive) and the GI50 [3] was 1.87 µM (inactive). For the same compound, the GI50 [4] was 2.39 µM (inactive), the GI50 [5] was 1.57 µM (inactive) and the GI50 [6] was 1.79 µM (inactive). The GI50 [7] was 0.457 µM (active), the GI50 [8] was 5.82 µM (inactive) and the GI50 [9] was 1.92 µM (inactive). The GI50 [10] was 0.822 µM (active), the GI50 [11] was 9.95 µM (inactive) and the GI50 [12] was 1.32 µM (inactive). The GI50 [13] was 2.01 µM (inactive), the GI50 [14] was 1.29 µM (inactive) and the GI50 [20] was 1.98 µM (inactive). The GI50 [15] was 2.49 µM (inactive).
In the case of `O=C1NC2C(=CC(O)C(O)C2O)c2cc3c(cc21)OCO3` (centres undefined), the GI50 [1] was 0.245 µM (active), the GI50 [2] was 0.52 µM (active) and the GI50 [3] was 0.28 µM (active). The GI50 [4] was 0.206 µM (active), the GI50 [5] was 0.436 µM (active) and the GI50 [17] was 0.056 µM (active). The GI50 [18] was 0.0794 µM (active), the GI50 [6] was 0.494 µM (active) and the GI50 [7] was 0.34 µM (active). The GI50 [8] was 0.504 µM (active), the GI50 [9] was 0.194 µM (active) and the GI50 [10] was 0.372 µM (active). The GI50 [11] was 0.94 µM (active), the GI50 [12] was 0.154 µM (active) and the GI50 [13] was 0.171 µM (active). The GI50 [14] was 0.301 µM (active), the GI50 [19] was 0.0964 µM (active) and the GI50 [20] was 0.418 µM (active). For the same compound, the GI50 [15] was 0.218 µM (active).
In the case of `N#Cc1ccc(/C=N/C23CC4CC(CC(C4)C2)C3)cc1`, the GI50 [1] was > 100 µM (inactive), the GI50 [2] was > 100 µM (inactive) and the GI50 [3] was > 100 µM (inactive). For the same compound, the GI50 [4] was 96.8 µM (inactive), the GI50 [5] was 98.2 µM (inactive) and the GI50 [6] was > 100 µM (inactive). The GI50 [7] was 39.5 µM (inactive), the GI50 [8] was > 100 µM (inactive) and the GI50 [9] was > 100 µM (inactive). For the same compound, the GI50 [10] was > 100 µM (inactive), the GI50 [11] was > 100 µM (inactive) and the GI50 [12] was > 100 µM (inactive). The GI50 [13] was > 100 µM (inactive), the GI50 [14] was > 100 µM (inactive) and the GI50 [20] was > 100 µM (inactive). The GI50 [15] was > 100 µM (inactive).
With `COC1OC(C)C(O)CC1OS(=O)(=O)c1ccc(C)cc1` (centres undefined) the GI50 [1] was > 100 µM (inactive), the GI50 [2] was > 100 µM (inactive) and the GI50 [3] was > 100 µM (inactive). For the same compound, the GI50 [4] was > 100 µM (inactive), the GI50 [5] was > 100 µM (inactive) and the GI50 [6] was > 100 µM (inactive). The GI50 [7] was > 100 µM (inactive), the GI50 [8] was > 100 µM (inactive) and the GI50 [9] was > 100 µM (inactive). For the same compound, the GI50 [10] was > 100 µM (inactive), the GI50 [11] was > 100 µM (inactive) and the GI50 [12] was > 100 µM (inactive). For the same compound, the GI50 [13] was > 100 µM (inactive), the GI50 [14] was > 100 µM (inactive) and the GI50 [20] was > 100 µM (inactive). The GI50 [15] was > 100 µM (inactive).
For `Cc1c2n(c(=O)[nH]c1=O)C1OC(CO)C(O2)C1O` (centres undefined), the GI50 [1] was > 100 µM (inactive), the GI50 [2] was > 100 µM (inactive) and the GI50 [3] was > 100 µM (inactive). For the same compound, the GI50 [4] was > 100 µM (inactive), the GI50 [5] was > 100 µM (inactive) and the GI50 [6] was > 100 µM (inactive). The GI50 [7] was > 100 µM (inactive), the GI50 [8] was > 100 µM (inactive) and the GI50 [9] was > 100 µM (inactive). The GI50 [10] was > 100 µM (inactive), the GI50 [12] was > 100 µM (inactive) and the GI50 [13] was > 100 µM (inactive). The GI50 [14] was > 100 µM (inactive), the GI50 [20] was > 100 µM (inactive) and the GI50 [15] was > 100 µM (inactive).
In the case of `C[S+](C)CCOC(=O)C(=[N+]=[N-])c1ccc([N+](=O)[O-])cc1`, the GI50 [1] was > 100 µM (inactive), the GI50 [2] was > 100 µM (inactive) and the GI50 [3] was > 100 µM (inactive). The GI50 [4] was > 100 µM (inactive), the GI50 [5] was > 100 µM (inactive) and the GI50 [6] was > 100 µM (inactive). The GI50 [7] was > 100 µM (inactive), the GI50 [8] was > 100 µM (inactive) and the GI50 [9] was > 100 µM (inactive). The GI50 [10] was > 100 µM (inactive), the GI50 [11] was > 100 µM (inactive) and the GI50 [12] was > 100 µM (inactive). For the same compound, the GI50 [13] was > 100 µM (inactive), the GI50 [14] was > 100 µM (inactive) and the GI50 [20] was > 100 µM (inactive). The GI50 [15] was > 100 µM (inactive).
`Cc1ccc2c(C)c3ccc4ccccc4c3c[n+]2c1.[O-][Cl+3]([O-])([O-])[O-]` was tested, and the GI50 [1] was 9.18 µM (inactive), the GI50 [2] was 16.3 µM (inactive) and the GI50 [3] was 23.9 µM (inactive). For the same compound, the GI50 [4] was 11.1 µM (inactive), the GI50 [5] was 11.5 µM (inactive) and the GI50 [6] was 31.4 µM (inactive). For the same compound, the GI50 [7] was 56.5 µM (inactive), the GI50 [8] was 5.81 µM (inactive) and the GI50 [9] was 14.3 µM (inactive). For the same compound, the GI50 [10] was 7.35 µM (inactive), the GI50 [11] was 51.3 µM (inactive) and the GI50 [12] was 20.1 µM (inactive). For the same compound, the GI50 [13] was 2.57 µM (inactive), the GI50 [14] was 4.68 µM (inactive) and the GI50 [20] was 53.5 µM (inactive). For the same compound, the GI50 [15] was 5.02 µM (inactive).
In the case of `Cc1c(C(=O)/C=C/c2c(Cl)cccc2Cl)c(=O)n(-c2ccccc2)n1C`, the GI50 [1] was 11.1 µM (inactive), the GI50 [2] was 15.1 µM (inactive) and the GI50 [3] was 19 µM (inactive). The GI50 [4] was 2.74 µM (inactive), the GI50 [5] was 4.82 µM (inactive) and the GI50 [6] was 30.1 µM (inactive). For the same compound, the GI50 [8] was 21.3 µM (inactive), the GI50 [9] was 11.4 µM (inactive) and the GI50 [10] was 19.1 µM (inactive). For the same compound, the GI50 [11] was 71.8 µM (inactive), the GI50 [12] was 5.79 µM (inactive) and the GI50 [13] was 24.1 µM (inactive). For the same compound, the GI50 [14] was 24.4 µM (inactive), the GI50 [20] was 54.7 µM (inactive) and the GI50 [15] was 0.0147 µM (active).
